Reference: patent publication US20070249678A1, “SYNTHESIS AND USES OF PYROGLUTAMIC ACID DERIVATIVES” (Prodimed, S.A., priority 2006, published 2007)
“Also recorded” adds a separate entry of the source.

Tested on: Renca cells (renal cell carcinoma)
Assay: Effect of the isomers on in vivo tumour growth in mice challenged with Renca cells
Settings: for Tumour surface, overall values (Mean) / Tumour surface, overall values (Median) / Tumour volume, overall values (Mean) / Tumour volume, overall values (Median): 260 ng/mouse i.p. on days 6, 7 and 14, s.c. Renca in Balb/c mice; for Inhibitory effect on in vivo Renca tumour growth (conclusion in words): 260 ng i.p. on days 6, 7 and 14, Balb/c mice
Excerpt: This assay was made in order to check the effect of each stereoisomer on in vivo tumour growth in mice challenged with Renca cells. Their effect was compared with placebo. The stereoisomers assayed were: • Isomer 1: 3R,5S-1-(3-Amino-5-carboxy-2-oxopyrrolidin-3-ylmethyl)pyridinium bromide hidrobromide (9b) • Isomer 2: 3R,5R-1-(3-Amino-5-carboxy-2-oxopyrrolidin-3-ylmethyl)pyridinium bromide hidrobromide (9c) • Isomer 3: 3S,5S-1-(3-Amino-5-carboxy-2-oxopyrrolidin-3-ylmethyl)pyridinium bromide hidrobromide (9a) • Isomer 4: 3 S,5R-1-(3-Amino-5-carboxy-2-oxopyrrolidin-3-ylmethyl)pyridinium bromide hidrobromide (9d)
Renca is a renal cell carcinoma originated in Balb/c mouse strain, and therefore syngeneic in mice with Balb/c genetic background [Melder R J et al., Cancer Immunol. Immunother., 2005, 54:535-547; Felluga B et al., 1969, J. Natl. Cancer Inst. 43:319-333]. Renca is considered a moderate immunogenic tumour and used as suitable model for testing immunointervention approaches [Salup R R, et al., 1992, The Journal of Urology, 147:1120-1123].
Renca cells (CLS, Eppelheim, Germany) were maintained in vitro by serial passages every 3-4 days. Cultures were performed with RPMI medium medium (RPMI, 10% foetal calf serum, 2 mM L-glutamine, non essential amino acids, 1 mM sodium pyruvate, 20 mM HEPES, 80 μg/mL gentamycin; all of them were purchased from Sigma, St. Louis, Mo., USA) by seeding 5×10^6 cells onto 75 cm^2 culture flasks. Tumour cells collected from 48 hour cultures upon trypsinization (Sigma, St. Louis, Mo., USA) were used as source of Renca cells for the studies described below.
Each isomer was tested at the dose levels of 260 ng administered on days 6, 7 and 14 after tumour inoculation.
The treatments were given by intraperitoneal route. The volume inoculated was 0.2 mL/animal. This route was chosen because it is the one described in the original method [Perez S, et al., 2003, Clinical Cancer Research. 9:5776-5785].
Tumours were established by subcutaneous inoculation in the right hind flank. Mice (Balb/c) were inoculated with 0.2 mL containing 105 viable Renca cells. The day of subcutaneous inoculation will be considered Day 0 of the test.
Balb/c mice inoculated with Renca cells were distributed into 5 experimental groups:
Mice were observed daily and the tumour size recorded twice a week. This was carried out by measuring two perpendicular diameters (L/W) with a calliper. These measures were used to obtain both tumour surface and volume:
Tumour surface=L×W (mm^2)
Tumour volume=L×W^2×½(mm^3)
Results were expressed as single values and/or as the mean±SD or median from each experimental group.
A case-control study was performed with treated and control mice in order to determine whether differences between isomers and administration of placebo were present. The data obtained (tumoral surface and volume) were tested for Normal distribution within the groups—Kolmogorov Smimov test p<0,05—. […] The U-test of Mann Withney was chosen for being one of the better known non-parametrical tests, anyway, results for this test are equivalent both to those of Wilcoxon's sum of ranges and Kruskal-Wallis two-groups test.
Due to the high dispersion of data, outlayers (animals beyond percentile 25 or above percentile 75 for tumour surface at day 25) were excluded of the study.

[1] = day 11 after tumour inoculation
[2] = day 14 after tumour inoculation
[3] = day 18 after tumour inoculation
[4] = day 21 after tumour inoculation
[5] = day 25 after tumour inoculation

SMILES | Tumour surface, overall values (Mean) (day 0 after tumour inoculation) | Tumour surface, overall values (Median) (day 0 after tumour inoculation) | Tumour volume, overall values (Mean) (day 0 after tumour inoculation) | Tumour volume, overall values (Median) (day 0 after tumour inoculation) | Tumour surface, overall values (Mean) [1] | Tumour surface, overall values (Median) [1] | Tumour volume, overall values (Mean) [1] | Tumour volume, overall values (Median) [1] | Tumour surface, overall values (Mean) [2] | Tumour surface, overall values (Median) [2] | Tumour volume, overall values (Mean) [2] | Tumour volume, overall values (Median) [2] | Tumour surface, overall values (Mean) [3] | Tumour surface, overall values (Median) [3] | Tumour volume, overall values (Mean) [3] | Tumour volume, overall values (Median) [3] | Tumour surface, overall values (Mean) [4] | Tumour surface, overall values (Median) [4] | Tumour volume, overall values (Mean) [4] | Tumour volume, overall values (Median) [4] | further results
Br.N[C@@]1(C[n+]2ccccc2)C[C@@H](C(=O)O)NC1=O.[Br-] (single isomer, unassigned; isomer 1) [isomer 1, 3R,5S-1-(3-Amino-5-carboxy-2-oxopyrrolidin-3-ylmethyl)pyridinium bromide hidrobromide] | 0 mm^2 | 0 mm^2 | 0 mm^3 | 0 mm^3 | 1.2 mm^2 | 0 mm^2 | 1.73 mm^3 | 0 mm^3 | 14.1 mm^2 | 12.5 mm^2 | 36.88 mm^3 | 22.75 mm^3 | 44.07 mm^2 | 36 mm^2 | 174.37 mm^3 | 108 mm^3 | 86.6 mm^2 | 81 mm^2 | 429.07 mm^3 | 329.25 mm^3 | Tumour surface, overall values (Mean) [5]: 149.97 mm^2; Tumour surface, overall values (Median) [5]: 160.5 mm^2; Tumour volume, overall values (Mean) [5]: 895.58 mm^3; Tumour volume, overall values (Median) [5]: 907.5 mm^3
Br.N[C@@]1(C[n+]2ccccc2)C[C@H](C(=O)O)NC1=O.[Br-] (single isomer, unassigned; isomer 2) [isomer 2, 3R,5R-1-(3-Amino-5-carboxy-2-oxopyrrolidin-3-ylmethyl)pyridinium bromide hidrobromide] | 0 mm^2 | 0 mm^2 | 0 mm^3 | 0 mm^3 | 1.6 mm^2 | 0 mm^2 | 2.34 mm^3 | 0 mm^3 | 14.46 mm^2 | 9 mm^2 | 32.05 mm^3 | 13.5 mm^3 | 55.14 mm^2 | 42 mm^2 | 217.43 mm^3 | 126 mm^3 | 96.86 mm^2 | 77 mm^2 | 453.89 mm^3 | 278.75 mm^3 | Tumour surface, overall values (Mean) [5]: 156.53 mm^2; Tumour surface, overall values (Median) [5]: 140 mm^2; Tumour volume, overall values (Mean) [5]: 938.48 mm^3; Tumour volume, overall values (Median) [5]: 613.25 mm^3; Deaths of mice in treatment group (second week after tumour inoculation, 260 ng i.p., animals excluded): Two mice from isomer 2 group died for unknown causes
Br.N[C@]1(C[n+]2ccccc2)C[C@@H](C(=O)O)NC1=O.[Br-] (single isomer, unassigned; isomer 3) [isomer 3, 3S,5S-1-(3-Amino-5-carboxy-2-oxopyrrolidin-3-ylmethyl)pyridinium bromide hidrobromide] | 0 mm^2 | 0 mm^2 | 0 mm^3 | 0 mm^3 | 0.3 mm^2 | 0 mm^2 | 0.28 mm^3 | 0 mm^3 | 7.5 mm^2 | 4 mm^2 | 14.55 mm^3 | 4 mm^3 | 31 mm^2 | 18 mm^2 | 101.4 mm^3 | 36 mm^3 | 64.57 mm^2 | 45.5 mm^2 | 278.15 mm^3 | 148.75 mm^3 | Inhibitory effect on in vivo Renca tumour growth (conclusion in words): inhibit the in vivo growth of the renal cell carcinoma (Renca); Tumour surface, overall values (Mean) [5]: 106.17 mm^2; Tumour surface, overall values (Median) [5]: 90 mm^2; Tumour volume, overall values (Mean) [5]: 557.18 mm^3; Tumour volume, overall values (Median) [5]: 405 mm^3; p of differences in Renca tumour growth rate vs. placebo (surface or volume), Mann-Whitney U test (days 18th and 25th of tumour development, 260 ng i.p.): < 0.05
Br.N[C@]1(C[n+]2ccccc2)C[C@H](C(=O)O)NC1=O.[Br-] (single isomer, unassigned; isomer 4) [isomer 4, 3 S,5R-1-(3-Amino-5-carboxy-2-oxopyrrolidin-3-ylmethyl)pyridinium bromide hidrobromide] | 0 mm^2 | 0 mm^2 | 0 mm^3 | 0 mm^3 | 0 mm^2 | 0 mm^2 | 0 mm^3 | 0 mm^3 | 2.87 mm^2 | 0 mm^2 | 4.73 mm^3 | 0 mm^3 | 15.47 mm^2 | 9 mm^2 | 40.67 mm^3 | 13.5 mm^3 | 37.37 mm^2 | 25 mm^2 | 126.42 mm^3 | 62.5 mm^3 | Inhibitory effect on in vivo Renca tumour growth (conclusion in words): inhibit the in vivo growth of the renal cell carcinoma (Renca); also recorded: highest inhibitory effect on Renca tumour growth; p of differences in Renca tumour growth rate vs. placebo (surface or volume), Mann-Whitney U test (all days scored after the day 14th of tumour development, 260 ng i.p.): < 0.01; Tumour surface, overall values (Mean) [5]: 81.3 mm^2; Tumour surface, overall values (Median) [5]: 63.5 mm^2; Tumour volume, overall values (Mean) [5]: 372.82 mm^3; Tumour volume, overall values (Median) [5]: 238.25 mm^3
